Measurements as given in PubChem BioAssay AID2740 (NMMLSC, 2010).
“And” between values parts separate entries of the source, which are not always exact repeats. Identical values can stand only once. The source made the active and inactive calls.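 How the source made its calls: active means compounds whose fitted half-maximal concentration for changing the GFP signal is at or below a set limit; inactive means the rest.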

Test: TOR pathway RPL19A-GFP modulators, concentration series – cell-based, S. cerevisiae, flow cytometry, MLPCN hits, dose response (AID 2740);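 further: background is signal of the same compound in parental non-GFP s288c yeast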
Details: S. cerevisiae RPL19A-GFP strain, flow cytometry fluorescence, 3 h; at 33 µM (top of the series)

SMILES | GFP fluorescence, lower = active (kMESF (background-subtracted))
C=C1C(O)[C@@H]2O[C@]3(CC[C@H](/C=C/C(C)[C@@H]4CC(C)=CC5(O[C@H](C[C@@](C)(O)C(=O)O)CCC5O)O4)O3)CC[C@H]2O[C@@H]1C(O)CC(C)[C@H]1OC2(CCCCO2)CCC1C (stereo partly specified) | 41.3 (inactive)
COc1ccc(C(=O)/C=C2/C(=O)Nc3ccccc32)cc1OC | 43.1 (inactive)
Cc1ccc(C)c(/C=C/C(=O)c2ccccc(=O)c2O)c1 | 15.8 (inactive)
COc1ccc(C(=O)NNC(=S)NC(=O)/C=C/c2cccs2)cc1 | 47.4 (inactive)
O=c1[nH]c(-c2ccccn2)nc(C(F)(F)F)c1Br | 30.1 (inactive)
Cc1cc(O)c(C(=O)/C=C/c2ccc(Cl)cc2)c(=O)o1 | 33 (inactive)
Cc1cccc(OCCN2CSC(=S)N(C)C2)c1 | 40.5 (inactive)
CCCS(=O)(=O)c1nnnn1-c1cccc(OC)c1 | 31.9 (inactive)
O=C(OCn1ncc(Br)c(Br)c1=O)c1ccccc1Cl | 44.4 (inactive)
Cc1ccc(NC(=O)ON=C2CCCC2)cc1 | 39.3 (inactive)
O=C1c2ccccc2C(=O)C2OC12 (stereo unspecified) | 29.2 (inactive)
COc1ccccc1-c1nc2s/c(=C\c3cccs3)c(=O)n2n1 | 36.9 (inactive)
C=CCN1C(=O)/C(=C/c2cccs2)C(=O)NC1=S | 15.8 (inactive)
COc1ccc(NC(=O)/C(Cl)=C(/Cl)S(=O)Cc2ccccc2)cn1 (stereo unspecified) | 35.8 (inactive)
CC(OC(=O)c1ccco1)C(=O)Nc1nc(-c2ccccc2)cs1 (stereo unspecified) | 37.1 (inactive)
N/C(Cc1ccc(Cl)c(Cl)c1)=N\OC(=O)c1cccs1 | 40.7 (inactive)
Fc1cccc(Nc2ncnc3c2cnn3-c2ccccc2)c1 | 35.1 (inactive)
COc1ccccc1C(=O)NNC(=S)NC(=O)c1cccs1 | 43.5 (inactive)
O=C1ON=C(c2ccccc2)/C1=C/c1ccco1 | 28.4 (inactive)
CC1=NOC(=O)/C1=C\c1ccc(-c2cc(Cl)ccc2Cl)o1 | 39 (inactive)
CC(Oc1cccc(Cl)c1)C(=O)Nc1nc(-c2ccccn2)cs1 (stereo unspecified) | 30 (inactive)

SMILES | GFP fluorescence, lower = active (kMESF (background-subtracted))
CCn1c(=O)c(C(C)=O)c(O)c2ccccc21 | 47 (inactive)
Cc1ccc(NC(=O)CCc2ccccc2)cc1S(=O)(=O)N1CCOCC1 | 45.9 (inactive)
CCCCC(=O)NNC(=S)NC(=O)c1ccc(C)cc1 | 42.3 (inactive)
O=[N+]([O-])c1ccc(O)c2ncccc12 | 25.5 (inactive) and 19.3 (inactive)
Oc1c(Br)cc(Br)cc1C=Nc1ccc2[nH]ncc2c1 | 36 (inactive)
CCCCNc1c2c3c(cccc3n(C)c1=O)C(=O)c1ccccc1-2 | 39.9 (inactive)
CCN(CC)C(=S)SSC(=S)N(CC)CC | 34.1 (inactive)
COc1ccc(C(=O)NC(=S)NNC(=O)CCc2ccccc2)cc1 | 46.5 (inactive)
CCCCC(=O)NC(=S)NNC(=O)CCc1ccccc1 | 37.8 (inactive)
COc1ccc(Cl)cc1C(Nc1cccnc1)c1ccc2cccnc2c1O (stereo unspecified) | 42.8 (inactive)
O=c1oc2cc(Oc3c([N+](=O)[O-])cc(C(F)(F)F)cc3[N+](=O)[O-])ccc2c2c1CCCC2 | 36.1 (inactive)
O=C(NNC(=S)NC(=O)C12CC3CC(CC(C3)C1)C2)c1ccncc1 | 46.9 (inactive)
O=C(/C=C/c1ccnc2ccccc12)c1cccs1 | 38 (inactive)
O=C(Nc1ccccc1)ON=C1CCCC1 | 42.1 (inactive)
COc1ccc(N2CCN(C(=O)c3ccccc3)CC2)c([N+](=O)[O-])c1 | 47.4 (inactive)
O=[N+]([O-])c1cnc(Sc2ccncn2)s1 | 31.1 (inactive)
O=C1CCN(S(=O)(=O)c2ccccc2)CCN1CCOCc1ccc(F)cc1 | 36.9 (inactive)
CN1CCN(C(c2ccc(C(F)(F)F)cc2)c2ccc3cccnc3c2O)CC1 (stereo unspecified) | 29.6 (inactive)
COc1cc(/C=C/c2ccc3c(Br)cc(Br)c(O)c3n2)ccc1O | 29.4 (inactive)
COc1cc(N2C(=O)C=CC2=O)c(OC)cc1Cl | 18.8 (inactive)
Cc1cc(NC(=O)c2cccnc2Cl)ccc1NC(=O)c1cc2ccccc2o1 | 39.6 (inactive)

SMILES | GFP fluorescence, lower = active (kMESF (background-subtracted))
CCOC(=O)CSC1=NC(=O)/C(=C/c2ccc(OC)cc2)S1 | 43.8 (inactive)
CC(C)C[C@]1(c2ccccc2)ON(c2ccccc2C(F)(F)F)C1=O | 36.6 (inactive)
COc1ccccc1N=Cc1nc(-c2ccccc2)oc1OC(C)=O | 46.8 (inactive)
O=C(Nc1nnc(-c2ccc(Cl)cc2)o1)c1ccccc1Br | 37 (inactive)
COc1cc(NC(=O)c2ccc(C)cc2)ccc1NC(=O)c1cc2ccccc2o1 | 40.8 (inactive)
O=C1N(c2ccccc2C(F)(F)F)OC1(Cc1ccccc1)c1ccccc1 (stereo unspecified) | 45.8 (inactive)
CCCOc1ccc(C(=O)NNC(=S)NC(=O)c2ccco2)cc1 | 51 (inactive)
CC(C)(C)c1cc(C(c2cccnc2)N2CCN(CCO)CC2)cc(C(C)(C)C)c1O (stereo unspecified) | 4.63 (inactive)
Cc1[nH][nH]c(=O)c1C(c1ccc(-c2ccc(Cl)cc2)o1)c1c(C)[nH][nH]c1=O | 41.2 (inactive)
O=C(/C=C/c1ccccc1)c1cc(Br)ccc(=O)c1O | 4.04 (inactive)
COc1cc(/C=C2/C(=O)ON=C2c2ccccc2)ccc1O | 35.6 (inactive)
CC1=C/C(=N\OS(=O)(=O)c2ccccc2)C(C)=CC1=O | 17.1 (inactive)
CCOc1ccccc1/C=c1\sc2ncnn2c1=O | 30.1 (inactive)
COc1cc(N=c2ssnc2Cl)c(OC)cc1Cl | 22.5 (inactive) and 23.2 (inactive)
CCOC(=O)CCS(=O)(=O)c1nc(-c2ccccc2)cc(C(F)(F)F)n1 | 33.2 (inactive)
O=C(Oc1c(Cl)cc(Cl)c2cccnc12)c1cccs1 | 36.1 (inactive)
CN(Cc1cnc2nc(N)nc(N)c2n1)c1ccc(C(=O)N[C@@H](CCC(=O)O)C(=O)O)cc1 | 39.3 (inactive) and 38.8 (inactive)
O=[N+]([O-])c1cc(CN2CCN(c3cccc(C(F)(F)F)c3)CC2)c2cccnc2c1O | 22.7 (inactive)
O=C(OCC(=O)N1CCN(C(=O)c2ccco2)CC1)c1cc(-c2ccc(Cl)c(Cl)c2Cl)nc2ccccc12 | 31.8 (inactive)
Clc1cnc(N/N=C/c2cccs2)c(Cl)c1 | 43.5 (inactive)
Nc1ccccc1SC(C[N+](=O)[O-])c1ccccc1 (stereo unspecified) | 38.1 (inactive)

SMILES | GFP fluorescence, lower = active (kMESF (background-subtracted))
O=C(NC(=S)NNC(=O)c1cnccn1)c1ccc(Cl)cc1 | 48.5 (inactive)
Cc1cc(C2CCCCC2)n(O)c(=O)c1 | 42.8 (inactive)
CCC(=O)Oc1oc(-c2ccccc2)nc1C=Nc1ccc(C)cc1 | 40.5 (inactive)
O=S(=O)(c1ccccc1)c1ccc(C(F)(F)F)cn1 | 45.7 (inactive)
O=C1ON=C(c2ccc(Cl)cc2)/C1=C/c1ccc(O)cc1 | 40.8 (inactive)
O=C(/C=C/c1ccc(F)cc1)NC(=S)NNC(=O)c1cnccn1 | 36.8 (inactive)
CCc1ccc(OCC(=O)NNC(=S)NC(=O)C2CC2)c(Br)c1 | 45.8 (inactive)
Cc1c(Cc2ccccc2)c(NCCN(C)C)n2c(nc3ccccc32)c1C#N | 46.6 (inactive)
COc1ccc(NC(=O)/C(C#N)=C/c2ncc([N+](=O)[O-])n2C)c(OC)c1 | 41.5 (inactive)
C#CCOCCOCCOCCNc1nc(N2CCN(C(=O)CCCCCCCCCCNC(=O)[C@H](CCCCN)n3cc(CCCC(=O)O)nn3)CC2)nc(N2CCN(C(=O)CCCCCCCCCCNC(=O)[C@H](CCCN=C(N)N)n3cc(C[C@@H](C)CC)nn3)CC2)n1 | 27.1 (inactive)
O=C(NOC(=O)c1ccccc1)c1ccccc1 | 38.1 (inactive)
Cc1nn(C)c(C)c1N1C(=O)c2cccc3c(Br)ccc(c23)C1=O | 40.3 (inactive)
O=C1N(c2ccccc2C(F)(F)F)O[C@@]1(c1ccccc1)C1CCCCC1 | 37.6 (inactive)
O=C1c2cccc3c([N+](=O)[O-])ccc(c23)C(=O)N1CCc1ccccn1 | 47.1 (inactive)
CC(C)Oc1ccc(C(=O)/C=C2/C(=O)Nc3ccccc32)cc1 | 29 (inactive)
O=C1C=C(Nc2ccc(Cl)cc2)C(=O)N1c1ccc(Cl)cc1 | 39.1 (inactive)
Cc1cccc(N2C(=O)C(Cl)=C(Nc3c(C)n(C)n(-c4ccccc4)c3=O)C2=O)c1C | 41.7 (inactive)
Cc1cc(C)c(S(=O)(=O)N2CCC(C(=O)NCc3ccc(Cl)cc3Cl)CC2)c(C)c1 | 31.7 (inactive)
